In patent US8188086B2, “Specific salt, anhydrous and crystalline form of a dihydropteridione derivative” (Boehringer Ingelheim International GmbH, priority 2006, dated 2012):

Legend:
Assay type in all cases: physicochemical
[1] = Stability of hydrate / anhydrous form (humidity, ambient conditions, heating)
Text: Under standard conditions the crystalline trihydrochloride salt form of N-[trans-4-[4-(cyclopropylmethyl)-1-piperazinyl]cyclohexyl]-4-[[(7R)-7-ethyl-5,6,7,8-tetrahydro-5-methyl-8-(1-methylethyl)-6-oxo-2-pteridinyl]amino]-3-methoxy-benzamide according to the invention is present in the form of an hydrate and is obtainable after drying with a changing stoichiometry (1-3 water equivalents). The hydrate with a stoichiometry close to a trihydrate seems to be the stable hydrated form under ambient conditions and can be obtained after conditioning of the dried material. The crystal water is tightly bound.
At about 260° C. another strong endothermic peak can be observed in the DSC-diagram, indicating melting of the dehydrated form. The onset of this melting event is at about 245° C. Melting occurs, however, under decomposition, indicated by the accompanied weight loss upon melting. When performing a TG-IR coupling experiment, it can be shown that hydrochloric acid is released upon decomposition. The respective anhydrous form, obtained by heating a sample up to 140° C. is not stable.

[2] = physchem
Method: This hydrated form of the trihydrochloride salt of the compound N-[trans-4-[4-(cyclopropylmethyl)-1-piperazinyl]cyclohexyl]-4-[[(7R)-7-ethyl-5,6,7,8-tetrahydro-5-methyl-8-(1-methylethyl)-6-oxo-2-pteridinyl]amino]-3-methoxy-benzamide of formula (I) is highly soluble (>10 mg/ml) in propylenglycol, glycofurol, Cremophor RH40 (30% aqueous solution), Poloxamer 188 (20% aqueous solution), Solutol HS 15 (20% aqueous solution) as well as HP-β-cyclodextrin (20%-, 10%-, 5%-aqueous solutions). • Solid state properties of an hydrated form of the trihydrochloride salt of N-[trans-4-[4-(cyclopropylmethyl)-1-piperazinyl]cyclohexyl]-4-[[(7R)-7-ethyl-5,6,7,8-tetrahydro-5-methyl-8-(1-methylethyl)-6-oxo-2-pteridinyl]amino]-3-methoxy-benzamide. • Appearance

[3] = Solubility in aqueous media
[4] = Solid state stability under harsh stress conditions
Text: No significant decomposition or impurities (Σ<2.4%) can be observed under the applied stress conditions.

## CC[C@@H]1C(=O)N(C)c2cnc(Nc3ccc(C(=O)N[C@H]4CC[C@H](N5CCN(CC6CC6)CC5)CC4)cc3OC)nc2N1C(C)C.Cl [N-[trans-4-[4-(cyclopropylmethyl)-1-piperazinyl]cyclohexyl]-4-[[(7R)-7-ethyl-5,6,7,8-tetrahydro-5-methyl-8-(1-methylethyl)-6-oxo-2-pteridinyl]amino]-3-methoxy-benzamide]
[1]; ambient conditions
  stability under ambient conditions compared to the anhydrous form: advantage of stability under ambient conditions
[1]; humidity down to 10% r.h.
  weight loss on lowering the humidity: does not result in a significant weight loss
[2]
  solubility: > 10000 µg/mL
[2]; aqueous with cosolvent or surfactant or cyclodextrin
  solubility: > 10000 µg/mL
[2]; organic solvent or mixture
  solubility: > 10000 µg/mL
[3]
  solubility in physiologically acceptable solvents: readily soluble in physiologically acceptable solvents
[3]; conclusion from Table I
  pH dependent solubility profile in aqueous media: high solubility in acidic and neutral media and strongly reduced solubility in basic media
[3]; pH 2.2, aqueous buffer
  solubility: > 10000 µg/mL
[3]; pH 3, aqueous buffer
  solubility: 6200 µg/mL
[3]; pH 4, aqueous buffer
  solubility: 7200 µg/mL
[3]; pH 5, aqueous buffer
  solubility: 7200 µg/mL
[3]; pH 6, aqueous buffer
  solubility: 7100 µg/mL
[3]; pH 7.4, aqueous buffer
  solubility: 7800 µg/mL
[3]; simulated gastric fluid
  solubility: > 10000 µg/mL
[3]; water
  solubility: > 10000 µg/mL
[4]; 24 hours at 105° C., 72 hours at 70° C. and >90% rel. humid., or 24 hours in a Xenotester (λ=300-800 nm, 250 W·m^−2)
  decomposition or impurities (Σ): < 2.4%
[4]; harsh stress conditions (105° C. 24 h; 70° C./>90% rel. humid. 72 h; Xenotester 24 h)
  stability in the solid state: very stable in the solid state

## CC[C@@H]1C(=O)N(C)c2cnc(Nc3ccc(C(=O)N[C@H]4CC[C@H](N5CCN(CC6CC6)CC5)CC4)cc3OC)nc2N1C(C)C.Cl [anhydrous form, N-[trans-4-[4-(cyclopropylmethyl)-1-piperazinyl]cyclohexyl]-4-[[(7R)-7-ethyl-5,6,7,8-tetrahydro-5-methyl-8-(1-methylethyl)-6-oxo-2-pteridinyl]amino]-3-methoxy-benzamide]
[1]; obtained by heating a sample up to 140° C.
  stability of the anhydrous form: not stable

## CC[C@@H]1C(=O)N(C)c2cnc(Nc3ccc(C(=O)N[C@H]4CC[C@H](N5CCN(CC6CC6)CC5)CC4)cc3OC)nc2N1C(C)C.Cl [trihydrochloride salt, N-[trans-4-[4-(cyclopropylmethyl)-1-piperazinyl]cyclohexyl]-4-[[(7R)-7-ethyl-5,6,7,8-tetrahydro-5-methyl-8-(1-methylethyl)-6-oxo-2-pteridinyl]amino]-3-methoxy-benzamide]
[3]
  solubility in water compared to the free base: much more soluble than the free base
